Experimental data as given in ChEMBL document CHEMBL1201862, “PubChem BioAssay data set” (2004).
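A five-concentration, 48-hour dose response in 96-well plates underlies each endpoint, interpolated linearly between surrounding concentrations. The concentration for 50% growth inhibition is given as GI50.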 The source made the active and inactive calls. No stated cut-off is given here; in the data, active = GI50 up to about 1.1 µM and inactive = higher.

Columns and labels:
Test in all cases: growth of human tumour cells (NCI), 48 h
CCRF-CEM = system: CCRF-CEM
NCI-H522 = system: NCI-H522
A549 = system: A549
M14 = system: M14
HT-29 = system: HT-29
TK-10 = system: TK-10
UACC-62 = system: UACC-62
HCC 2998 = system: HCC 2998
RPMI-8226 = system: RPMI-8226
IGROV-1 = system: IGROV-1
A498 = system: A498
NCI-H23 = system: NCI-H23
SN12C = system: SN12C
HOP-62 = system: HOP-62
OVCAR-5 = system: OVCAR-5
SK-OV-3 = system: SK-OV-3
U-251 = system: U-251
SF-295 = system: SF-295

Question: Which GI50 (CCRF-CEM) does the source give for CCC1(CN(C)C)CC/C(=C\c2ccc(OC)c(OC)c2)C1=O (centres undefined) here?
Answer: The GI50 was > 68.9 µM (inactive).

Question: And the GI50 (NCI-H522)?
Answer: Its GI50 is 64.1 µM (inactive).

Question: What about the GI50 (A549) of the same molecule?
Answer: Its GI50 is > 100 µM (inactive).

Question: And the GI50 (M14)?
Answer: Its GI50 is > 100 µM (inactive).

Question: What about the GI50 (HT-29) of the same molecule?
Answer: Its GI50 is 58.2 µM (inactive).

Question: What about the GI50 (TK-10) of the same molecule?
Answer: The GI50 was > 100 µM (inactive).

Question: What about the GI50 (UACC-62) of the same molecule?
Answer: The GI50 was > 69.3 µM (inactive).

Question: And the GI50 (HCC 2998)?
Answer: Its GI50 is > 100 µM (inactive).

Question: What about the GI50 (RPMI-8226) of the same molecule?
Answer: Its GI50 is 18.2 µM (inactive).

Question: And the GI50 (IGROV-1)?
Answer: The GI50 was > 100 µM (inactive).

Question: What about the GI50 (A498) of the same molecule?
Answer: Its GI50 is 88.7 µM (inactive).

Question: And the GI50 (NCI-H23)?
Answer: The GI50 was > 100 µM (inactive).

Question: What about the GI50 (SN12C) of the same molecule?
Answer: The GI50 was > 100 µM (inactive).

Question: And the GI50 (HOP-62)?
Answer: The GI50 was > 100 µM (inactive).

Question: What about the GI50 (OVCAR-5) of the same molecule?
Answer: Its GI50 is > 69.5 µM (inactive).

Question: What about the GI50 (SK-OV-3) of the same molecule?
Answer: Its GI50 is > 100 µM (inactive).

Question: What about the GI50 (U-251) of the same molecule?
Answer: The GI50 was > 100 µM (inactive).

Question: What about the GI50 (SF-295) of the same molecule?
Answer: Its GI50 is > 100 µM (inactive).

Question: Which results are given for C=Cc1cncc(C#N)c1CCc1c(C#N)cncc1C=C?
Answer: GI50 (CCRF-CEM): > 10 µM (inactive); GI50 (NCI-H522): > 10 µM (inactive); GI50 (A549): > 10 µM (inactive); GI50 (M14): > 10 µM (inactive); GI50 (HT-29): > 10 µM (inactive); GI50 (TK-10): > 10 µM (inactive); GI50 (UACC-62): > 10 µM (inactive); GI50 (HCC 2998): > 10 µM (inactive); GI50 (RPMI-8226): > 10 µM (inactive); GI50 (IGROV-1): > 10 µM (inactive); GI50 (A498): > 10 µM (inactive); GI50 (NCI-H23): > 10 µM (inactive); GI50 (SN12C): > 10 µM (inactive); GI50 (HOP-62): > 10 µM (inactive); GI50 (OVCAR-5): > 10 µM (inactive); GI50 (SK-OV-3): > 10 µM (inactive); GI50 (U-251): > 10 µM (inactive); GI50 (SF-295): > 10 µM (inactive)

Question: Which GI50 (CCRF-CEM) does the source give for CC(C)NC(=O)O/N=C1\CCC2[C@@H]3CC=C4C[C@@H](OC(=O)NC(C)C)CC[C@]4(C)C3CC[C@]12C (some centres undefined) here?
Answer: The GI50 was 1.24 µM (inactive).

Question: What about the GI50 (NCI-H522) of the same molecule?
Answer: The GI50 was 1.53 µM (inactive).

Question: What about the GI50 (A549) of the same molecule?
Answer: Its GI50 is 1.47 µM (inactive).

Question: And the GI50 (M14)?
Answer: Its GI50 is 0.627 µM (active).

Question: And the GI50 (HT-29)?
Answer: The GI50 was 2.34 µM (inactive).

Question: What about the GI50 (TK-10) of the same molecule?
Answer: Its GI50 is 1.66 µM (inactive).

Question: What about the GI50 (UACC-62) of the same molecule?
Answer: Its GI50 is 1.3 µM (inactive).

Question: And the GI50 (HCC 2998)?
Answer: The GI50 was 2.14 µM (inactive).

Question: And the GI50 (RPMI-8226)?
Answer: Its GI50 is 0.695 µM (active).

Question: And the GI50 (IGROV-1)?
Answer: Its GI50 is 1.87 µM (inactive).

Question: What about the GI50 (A498) of the same molecule?
Answer: Its GI50 is 6.89 µM (inactive).

Question: And the GI50 (NCI-H23)?
Answer: Its GI50 is 1.18 µM (inactive).

Question: And the GI50 (SN12C)?
Answer: Its GI50 is 1.57 µM (inactive).

Question: And the GI50 (HOP-62)?
Answer: Its GI50 is 6.53 µM (inactive).

Question: What about the GI50 (OVCAR-5) of the same molecule?
Answer: Its GI50 is 0.748 µM (active).

Question: What about the GI50 (SK-OV-3) of the same molecule?
Answer: Its GI50 is 4.31 µM (inactive).

Question: What about the GI50 (U-251) of the same molecule?
Answer: Its GI50 is 1.38 µM (inactive).

Question: What about the GI50 (SF-295) of the same molecule?
Answer: The GI50 was 1.54 µM (inactive).

Question: CN(C)C1(C#N)CCC2(CC1)OCCO2 was tested. Which GI50 (CCRF-CEM) did it give?
Answer: Its GI50 is > 100 µM (inactive).

Question: What about the GI50 (NCI-H522) of the same molecule?
Answer: The GI50 was > 100 µM (inactive).

Question: What about the GI50 (A549) of the same molecule?
Answer: The GI50 was > 100 µM (inactive).

Question: And the GI50 (M14)?
Answer: The GI50 was > 100 µM (inactive).

Question: What about the GI50 (HT-29) of the same molecule?
Answer: The GI50 was > 100 µM (inactive).

Question: And the GI50 (TK-10)?
Answer: The GI50 was > 100 µM (inactive).

Question: What about the GI50 (UACC-62) of the same molecule?
Answer: The GI50 was > 100 µM (inactive).

Question: What about the GI50 (HCC 2998) of the same molecule?
Answer: The GI50 was > 100 µM (inactive).

Question: What about the GI50 (RPMI-8226) of the same molecule?
Answer: The GI50 was > 100 µM (inactive).

Question: And the GI50 (IGROV-1)?
Answer: Its GI50 is > 100 µM (inactive).

Question: And the GI50 (A498)?
Answer: Its GI50 is > 100 µM (inactive).

Question: What about the GI50 (NCI-H23) of the same molecule?
Answer: Its GI50 is > 100 µM (inactive).

Question: What about the GI50 (SN12C) of the same molecule?
Answer: The GI50 was > 100 µM (inactive).

Question: And the GI50 (HOP-62)?
Answer: Its GI50 is > 100 µM (inactive).

Question: And the GI50 (OVCAR-5)?
Answer: Its GI50 is > 100 µM (inactive).

Question: What about the GI50 (SK-OV-3) of the same molecule?
Answer: Its GI50 is > 100 µM (inactive).

Question: What about the GI50 (U-251) of the same molecule?
Answer: The GI50 was > 100 µM (inactive).

Question: And the GI50 (SF-295)?
Answer: The GI50 was > 100 µM (inactive).

Question: Which GI50 (CCRF-CEM) does the source give for Oc1cccnc1/C=N/OCc1ccccc1 here?
Answer: The GI50 was > 100 µM (inactive).

Question: What about the GI50 (NCI-H522) of the same molecule?
Answer: Its GI50 is > 100 µM (inactive).

Question: And the GI50 (A549)?
Answer: Its GI50 is > 100 µM (inactive).

Question: What about the GI50 (M14) of the same molecule?
Answer: Its GI50 is > 100 µM (inactive).

Question: And the GI50 (HT-29)?
Answer: The GI50 was > 100 µM (inactive).

Question: And the GI50 (TK-10)?
Answer: Its GI50 is > 100 µM (inactive).

Question: And the GI50 (UACC-62)?
Answer: Its GI50 is > 100 µM (inactive).

Question: What about the GI50 (HCC 2998) of the same molecule?
Answer: The GI50 was > 100 µM (inactive).

Question: What about the GI50 (RPMI-8226) of the same molecule?
Answer: Its GI50 is > 100 µM (inactive).

Question: And the GI50 (IGROV-1)?
Answer: Its GI50 is > 100 µM (inactive).

Question: What about the GI50 (A498) of the same molecule?
Answer: Its GI50 is > 100 µM (inactive).

Question: What about the GI50 (SN12C) of the same molecule?
Answer: Its GI50 is 97.1 µM (inactive).

Question: And the GI50 (HOP-62)?
Answer: Its GI50 is > 100 µM (inactive).

Question: What about the GI50 (OVCAR-5) of the same molecule?
Answer: The GI50 was > 100 µM (inactive).

Question: And the GI50 (SK-OV-3)?
Answer: Its GI50 is > 100 µM (inactive).

Question: And the GI50 (U-251)?
Answer: The GI50 was > 100 µM (inactive).

Question: What about the GI50 (SF-295) of the same molecule?
Answer: The GI50 was > 100 µM (inactive).

Question: What does the source list for COC1=CC(=O)C2C(C1=O)[C@@H]1c3ccccc3OC[C@H]21 (some centres undefined)?
Answer: GI50 (CCRF-CEM): > 100 µM (inactive); GI50 (NCI-H522): 49.9 µM (inactive); GI50 (A549): > 100 µM (inactive); GI50 (M14): > 100 µM (inactive); GI50 (HT-29): > 100 µM (inactive); GI50 (TK-10): > 100 µM (inactive); GI50 (HCC 2998): > 100 µM (inactive); GI50 (RPMI-8226): > 100 µM (inactive); GI50 (A498): > 100 µM (inactive); GI50 (NCI-H23): > 100 µM (inactive); GI50 (HOP-62): > 100 µM (inactive); GI50 (OVCAR-5): > 100 µM (inactive); GI50 (SK-OV-3): > 100 µM (inactive); GI50 (U-251): > 100 µM (inactive); GI50 (SF-295): > 100 µM (inactive)
